Laboratory results: patent publication US11576933B2, “Compositions and methods for an improved antitumor immune response” (EFFECTOR THERAPEUTICS, INC., priority 2017, dated 2023)

Tests used:
[1] = system: fibroblasts (Lonza #CC-2512); test: α-SMA protein level by western blot in fibroblasts co-treated with TGFβ (fibroblast-to-myofibroblast transformation); type: cell-based; conditions: 24 hours co-incubation with 10 ng/ml TGFβ, inhibitor 0, 1.5, 4, 13 or 40 nM, FIG. 1
Experimental: (§1) Myofibroblasts are believed to be associated with tumor growth, vascularization, and metastasis (see, e.g., Webber et al., Cancer Res. 70:9621, 2010). The ability of Cmp1 or Cmp2 to inhibit the TGFβ-mediated fibroblast-to-myofibroblast transformation and components of the extracellular matrix was evaluated in fibroblasts.
(§2) Briefly, fibroblasts (Lonza #CC-2512; cell passage numbers 2 through 5 were used for all experiments) were seeded (Day 0) and cultured in Dulbecco's modified Eagle medium (DMEM) supplemented with 10% fetal bovine serum (FBS), penicillin, streptomycin and glutamax (Invitrogen) at 37° C. in a humidified incubator with 5% CO2 overnight. On Day 1, cells were washed with phosphate buffered saline (PBS), and then incubated for 48 hours in fresh serum-free DMEM supplemented with penicillin, streptomycin, and glutamax. […]
(§3) After a 24-hour incubation period, the effects of eIF4A inhibition on fibroblast transformation and production of extracellular matrix components were evaluated. Smooth muscle actin (α-SMA) protein levels were analyzed by western blot. Procollagen type 1 C-Peptide (PIPC) levels were analyzed by collecting culture media, centrifuging to pellet cellular debris, and quantifying using the (PIP) EIA kit (Clontech, Cat. No. MK101) according to the manufacturer's instructions.

[2] = system: fibroblasts (Lonza #CC-2512); test: Procollagen type 1 C-Peptide (PIPC) secretion from fibroblasts co-treated with TGFβ, (PIP) EIA kit; type: cell-based; conditions: 24 hours co-incubation with 10 ng/ml TGFβ; inhibitor 0, 1.5, 4, 13 or 40 nM; FIGS. 2A and 2B
Experimental: as §1, §2, §3

myofibroblasts [3] = test: TGFβ secretion from pre-formed myofibroblasts, Human TGF-B1 ELISA kit; type: cell-based; conditions: myofibroblasts pre-formed with 10 ng/ml TGFβ 24 hours, washed; inhibitor 0-100 nM for 48 hours; FIG. 3A
Experimental: (§4) Briefly, fibroblasts (Lonza #CC-2512; cell passage numbers 2 through 5 were used for all experiments) were seeded (Day 0) and cultured in Dulbecco's modified Eagle medium (DMEM) supplemented with 10% fetal bovine serum (FBS), penicillin, streptomycin and glutamax (Invitrogen) at 37° C. in a humidified incubator with 5% CO2 overnight. On Day 1, cells were washed with phosphate buffered saline (PBS), and then incubated for 72 hours in fresh serum-free DMEM supplemented with penicillin, streptomycin, and glutamax. On Day 4, cells were washed, followed by addition of fresh serum-free DMEM containing 10 ng/ml TGFβ, and cultured for 24 hours. On Day 5, cells were washed, followed by addition of fresh serum-free DMEM containing eIF4A inhibitor Cmp1 (0, 1.2, 3.7, 11.1, 33.3 or 100 nM), and cultured. Controls included untreated cells. At 48 hours post-addition of eIF4A inhibitor, 300 ul of culture media was harvested, centrifuged to pellet cellular debris, and frozen at −80° C. TGFβ1 in the culture medium was quantified using the Human TGF-B1 ELISA kit (R&D System DY240-05) according to the manufacturer's instructions. Procollagen type 1 C-Peptide (PIPC) levels were analyzed using the (PIP) EIA kit (Clontech, Cat. No. MK101) according to the manufacturer's instructions.

myofibroblasts [4] = test: Procollagen type 1 C-Peptide (PIPC) secretion from pre-formed myofibroblasts, (PIP) EIA kit; type: cell-based; conditions: myofibroblasts pre-formed with 10 ng/ml TGFβ 24 hours, washed; inhibitor 0-100 nM for 48 hours; FIG. 3B
Experimental: as §4

[5] = system: KPC-3 (mouse pancreatic carcinoma) tumor; test: Tumor infiltrating lymphocytes (CD3+/CD8+ IHC) in allograft KPC-3 tumor model; type: in vivo; conditions: parenterally, C57BL/6J mice, versus vehicle; for CD3+ T cells in the KPC-3 tumor samples: FIG. 4B
Experimental: To evaluate the effect of an eIF4A inhibitor on tumor infiltrating lymphocytes, an allograft tumor model was used. Briefly, KPC-3 (mouse pancreatic carcinoma) cells grown in DMEM supplemented with 10% FBS were harvested during exponential growth and counted for tumor inoculation in immune competent C57BL/6J mice. Each mouse was inoculated subcutaneously with 0.1×10^6 KPC-3 tumor cells in the right flank region in 0.1 mL volume comprising a 1:1 ratio (volume to volume) of cells in growth media and Matrigel® matrix (BD Biosciences, San Jose Calif.). Tumors were grown to 100-200 mm^3 prior to study initiation. Before beginning treatment, all animals were weighed and tumor volumes measured using a caliper. Since the tumor volume can affect the effectiveness of any given treatment, mice were randomly assigned into vehicle and test article treatment groups after tumors had reached a similar size. Each study group contained 8 mice, with each group receiving either vehicle (D5W) or Cmp1 administered parenterally on two dosing schedules (0.33 mg/kg Q2D and 1 mg/kg Q1W for 17 days). Following treatment, tumor biopsies were collected for four representative animals from each treatment group, formalin-fixed, and paraffin-embedded. Tumor samples were sectioned and stained with anti-CD3 and anti-CD8 antibodies or isotype control. A hematoxylin nuclear counterstain was also applied. Image analysis and quantification were conducted using ImageDx™. Increased CD3^+ and CD8^+ T cell staining within the tumor sample for eIF4A inhibitor treatment relative to vehicle indicates an increase in infiltrating lymphocytes into the tumor.

SMILES	α-SMA protein level (ratio of α-SMA to β-actin) [1]	procollagen type I secretion (PIPC) [2]	levels of secreted TGFβ (myofibroblasts [3])	procollagen type I levels (myofibroblasts [4])	CD3+ T cells in the KPC-3 tumor samples ([5]; 0.3 mg/kg Q2D for 17 days)	CD3+ T cells in the KPC-3 tumor samples ([5]; 1 mg/kg Q1W for 17 days)	CD8+ T cells in the KPC-3 tumor samples ([5]; 1 mg/kg Q1W for 17 days, FIG. 4C)
COc1nc(Cl)cc2c1[C@]1(O)[C@H](O)[C@H](CN(C)C)[C@@H](c3ccccc3)[C@]1(c1ccc(C#N)cc1)O2 [Cmp2, 4-((5aR,6S,7S,8R,8aS)-3-chloro-7-((dimethylamino)methyl)-8,8a-dihydroxy-1-methoxy-6-phenyl-6,7,8,8a-tetrahydro-5aH-cyclopenta[4,5]furo[3,2-c]pyridin-5a-yl)benzonitrile]	dose-dependent reduction	blocked the increase	–	–	–	–	–
COc1cc2c(c(OC)n1)[C@]1(O)[C@H](O)[C@H](CN(C)C)[C@@H](c3ccccc3)[C@]1(c1ccc(C#N)cc1)O2 (racemic) [Cmp1]	dose-dependent reduction	blocked the increase	reduced the levels of secreted TGFβ in a dose-dependent manner	dose-dependent decrease	significant increase	significant increase	significant increase
